Experimental data from US6235284A, “Synthetic polypeptides belonging to the hepatitis C virus (HCV) and which can be used especially for detecting the latter” (Bio Merieux, priority 1992, dated 2001).
Values joined by “and” are separate entries in the source; they are usually repeats but may differ in a detail not shown here. Equal values may be shown once.

Assays:
[1] = test system: anti-HCV antibodies (HCV-positive sera); experiment: ELISA detection of anti-HCV antibodies in HCV-positive sera with adsorbed peptides; assay type: binding, human; settings: for optical density at 492 nm: peptide 10 μg/ml, duplicate
Description: The reactivity of these three peptides towards the sera of individuals infected with the hepatitis C virus, termed (HCV) positive, was evaluated in an ELISA test according to the procedure described below.
(§1) Detection of anti-HCV Antibodies by ELISA
(§2) The wells of a microtiter plate of "NUNC MAXISORB™" trademark are saturated with 100 μl of a solution containing the peptide or a mixture of peptides (10 μg/ml) for 2 hours at 37° C. The plate is then emptied, then washed with a wash buffer containing 0.05% TWEEN™ 20(polysorbate 20). The wells are saturated with 100 μl of wash buffer supplemented with 10% goat serum (v/v), then incubated for 30 minutes at 37° C., then washed again as above. The sera to be analyzed are diluted to the appropriate dilution with saturation buffer. The incubation of the sera is 1 hour at 37° C. The wells are again washed. The solution of conjugate (goat IgG to human IgG labelled with peroxidase) at a dilution of 1/1000 in the saturation buffer is then added and the incubation lasts for 90 minutes at 37° C. After washing, the solution of orthophenylenediamine substrate is added. After 10 minutes, the reaction is stopped with 50 μl of H2 SO4 and the optical density is read at 492 nm. It should be noted that all the tests were carried out in duplicate.
(§3) For that, the different peptides are adsorbed on the microplates at a concentration of 10 μg/ml and the sera are used at 1/100 dilution.
(§4) The values obtained, which are collated in Table 1 below, correspond to the optical density (OD) multiplied by 10^3, at 492 nm.
(§5) For each serum the experiment was carried out in duplicate. The **** are values outside the upper scale.
The different peptides are absorbed onto microplates at a concentration of 10 μg/ml and the sera are used at the dilution stated.
The values obtained, which are collated in Table 2 below, correspond to the optical density at 492 nm. All the experiments were carried out in duplicate.
Each serum was, in a first instance, tested at the dilution 1/100.
The values given correspond to the optical density read at 492 nm multiplied by the factor 10^3.

normal sera = experiment: ELISA of peptides on normal sera (specificity); assay type: binding, human; settings: peptide 10 μg/ml, duplicate
Description: as §1, §2, §3, §4, §5

HCV-positive sera = settings: Nasoff et al., recombinant fusion proteins; cited from earlier work

R40R: peptide extending from arginine 74 up to arginine 115 of the HCV CORE protein (RTWAQPGYPWPLYGNEGCGWAGWLLSPRGSRPSWGPTDPRRR)
sera with which the peptide reacts ([1]; cf Table 1): about 10%
optical density at 492 nm ([1]; serum B 1, 1/100): 172 OD × 10^3 and 173 OD × 10^3
optical density at 492 nm ([1]; serum B 2, 1/100): 364 OD × 10^3 and 345 OD × 10^3
optical density at 492 nm ([1]; serum B 3, 1/100): 304 OD × 10^3 and 341 OD × 10^3
optical density at 492 nm ([1]; serum B 4, 1/100): 405 OD × 10^3 and 346 OD × 10^3
optical density at 492 nm ([1]; serum B 5, 1/100): 360 OD × 10^3 and 281 OD × 10^3
optical density at 492 nm ([1]; serum B 6, 1/100): 172 OD × 10^3 and 163 OD × 10^3
optical density at 492 nm ([1]; serum B 7, 1/100): 418 OD × 10^3 and 457 OD × 10^3
optical density at 492 nm ([1]; serum B 8, 1/100): 271 OD × 10^3 and 259 OD × 10^3
optical density at 492 nm ([1]; serum B 9, 1/100): 235 OD × 10^3 and 229 OD × 10^3
optical density at 492 nm ([1]; serum B 10, 1/100): 108 OD × 10^3 and 98 OD × 10^3
optical density at 492 nm ([1]; serum B 11, 1/100): 164 OD × 10^3 and 184 OD × 10^3
optical density at 492 nm ([1]; serum B 12, 1/100): 136 OD × 10^3 and 117 OD × 10^3
optical density at 492 nm ([1]; serum B 13, 1/100): 140 OD × 10^3 and 99 OD × 10^3
optical density at 492 nm ([1]; serum B 14, 1/100): 130 OD × 10^3 and 125 OD × 10^3
optical density at 492 nm ([1]; serum B 15, 1/100): 301 OD × 10^3 and 303 OD × 10^3
optical density at 492 nm ([1]; serum B 16, 1/100): 117 OD × 10^3 and 125 OD × 10^3
optical density at 492 nm ([1]; serum P 1, 1/100): 375 OD × 10^3 and 420 OD × 10^3
optical density at 492 nm ([1]; serum P 2, 1/100): 399 OD × 10^3 and 391 OD × 10^3
optical density at 492 nm ([1]; serum P 3, 1/100): 223 OD × 10^3 and 215 OD × 10^3
optical density at 492 nm ([1]; serum P 4, 1/100): 309 OD × 10^3 and 307 OD × 10^3
optical density at 492 nm ([1]; serum P 5, 1/100): 129 OD × 10^3 and 176 OD × 10^3
optical density at 492 nm ([1]; serum P 6, 1/100): 87 OD × 10^3 and 100 OD × 10^3
optical density at 492 nm ([1]; serum P 7, 1/100): 496 OD × 10^3 and 478 OD × 10^3
optical density at 492 nm ([1]; serum P 8, 1/100): 282 OD × 10^3 and 328 OD × 10^3
optical density at 492 nm ([1]; serum P 9, 1/100): 159 OD × 10^3 and 158 OD × 10^3
optical density at 492 nm ([1]; serum P 10, 1/100): 218 OD × 10^3 and 216 OD × 10^3
optical density at 492 nm ([1]; serum P 11, 1/100): 1191 OD × 10^3 and 1377 OD × 10^3
optical density at 492 nm ([1]; serum P 12, 1/100): 1121 OD × 10^3 and 1231 OD × 10^3
optical density at 492 nm ([1]; serum P 13, 1/100): 113 OD × 10^3 and 116 OD × 10^3
optical density at 492 nm ([1]; serum P 14, 1/100): 280 OD × 10^3 and 270 OD × 10^3
optical density at 492 nm ([1]; serum P 15, 1/100): 2305 OD × 10^3 and 2335 OD × 10^3
optical density at 492 nm ([1]; serum P 16, 1/100): 938 OD × 10^3 and 964 OD × 10^3
optical density at 492 nm ([1]; serum P 17, 1/100): 217 OD × 10^3 and 212 OD × 10^3
optical density at 492 nm ([1]; serum P 18, 1/100): 1427 OD × 10^3 and 1327 OD × 10^3
optical density at 492 nm ([1]; serum P 19, 1/100): 84 OD × 10^3 and 89 OD × 10^3
optical density at 492 nm ([1]; serum P 20, 1/100): 714 OD × 10^3 and 740 OD × 10^3
optical density at 492 nm (normal sera; normal serum SN 10, 1/100): 163 OD × 10^3 and 154 OD × 10^3
optical density at 492 nm (normal sera; normal serum SN 11, 1/100): 150 OD × 10^3 and 138 OD × 10^3
optical density at 492 nm (normal sera; normal serum SN 16, 1/100): 426 OD × 10^3 and 439 OD × 10^3
optical density at 492 nm (normal sera; normal serum SN 17, 1/100): 104 OD × 10^3 and 74 OD × 10^3
optical density at 492 nm (normal sera; normal serum SN 18, 1/100): 119 OD × 10^3 and 87 OD × 10^3
optical density at 492 nm (normal sera; normal serum SN 19, 1/100): 480 OD × 10^3 and 496 OD × 10^3

glutathione S-transferase
reactivity towards HCV-positive sera (HCV-positive sera): none of the sera tested reacts
